Results as given in patent publication US20080134931A1, “Plasterboards Provided With Antimicrobial Effect” (priority 2005, published 2008).
Read-outs that look alike come from different tables or passages of the source.

Assays:
Aspergillus flavus = experiment: Minimum inhibitory concentration and synergism (Kull synergy index) of OPP/TBZ; type: cell-based; conditions: read-out: Amount of pure active substances which suppress growth (QA, QB; minimum inhibitory concentration)
Description: For improving the overall performance of an antimicrobial treatment, the use of active substance mixtures is customary for compensating, for example, for gaps in the activity of one component or for optimizing the costs of preservation.
The synergism found for the mixture according to the invention can be determined via the following mathematical formula (cf. F. C. Kull, P. C. Elisman, H. D. Sylwestrowicz and P. K. Mayer, Appl. Microbiol. 9, 538 (1961):
Qa=amount of component A in the active substance mixture which achieves the desired effect, i.e. no microbial growth,
QA=amount of component A which, when used alone, suppresses the growth of the micro-organisms,
Qb=amount of component B in the active substance mixture which suppresses the growth of the micro-organisms,
QB=amount of component B which, when used alone, suppresses the growth of the micro-organisms.
Synergism of o-phenylphenol (OPP)/thiabendazole (TBZ)
Using the test micro-organism, Aspergillus flavus, the minimum inhibitory concentration of the active substance combinations listed in Table 2 were investigated.

[1] = test system: mixture of moulds: Penicillium glaucum, Chaetomium globosum, Aspergillus niger, Aureobasidium pullulans; experiment: Microbiological resistance of plasterboard treated with OPP in the gypsum core after inoculation with a fungal mixture, humid environment
Description: For checking the effectiveness of a plasterboard treated with OPP in the gypsum core, the resistance was investigated in the laboratory after inoculation with a fungal mixture. For this purpose, sandwich-type plasterboard samples having the dimensions 14×5 cm are transferred to a 1 litre powder bottle and suspended by the bottle cap. At the start of the experiment, the test specimens thus prepared are immersed once in a mixture of the following moulds to simulate a strong fungal attack:
The mould species are material pests well known to the person skilled in the art and are therefore suitable for a qualifying conclusion about the degree of antimicrobial protection of a product treated with an OPP or the sodium or potassium salt thereof and optionally further active components. The sample boards are stored at room temperature over a period of up to 8 weeks, a water vapour-saturated atmosphere being continuously ensured by maintaining the initial amount of water at the bottom of the vessel (direct contact between plasterboard and water is not permitted). The assessment of the test specimens is effected at certain times and is carried out according to the following rating scheme:
0=no growth on the surface
1=slight growth (<10% of the surface infested)
2=moderate growth (<50% of the surface infested)
3=strong growth on the surface
Microbiological resistance of a plasterboard contaminated once in a humid environment

| SMILES | MIC (Aspergillus flavus; substance used alone) | MIC (Aspergillus flavus) | Rating (mould growth on plasterboard surface) ([1]; 300 ppm OPP in the gypsum core, 1 week, water vapour-saturated atmosphere, room temperature) | Rating (mould growth on plasterboard surface) ([1]; 300 ppm OPP in the gypsum core, 3 weeks) | Rating (mould growth on plasterboard surface) ([1]; 300 ppm OPP in the gypsum core, 4 weeks) | Rating (mould growth on plasterboard surface) ([1]; 300 ppm OPP in the gypsum core, 8 weeks) | Rating (mould growth on plasterboard surface) ([1]; 500 ppm OPP in the gypsum core, 1 week) | Rating (mould growth on plasterboard surface) ([1]; 500 ppm OPP in the gypsum core, 3 weeks) | Rating (mould growth on plasterboard surface) ([1]; 500 ppm OPP in the gypsum core, 4 weeks) | Rating (mould growth on plasterboard surface) ([1]; 500 ppm OPP in the gypsum core, 8 weeks) | Rating (mould growth on plasterboard surface) ([1]; 750 ppm OPP in the gypsum core, 1 week) | Rating (mould growth on plasterboard surface) ([1]; 750 ppm OPP in the gypsum core, 3 weeks) | Rating (mould growth on plasterboard surface) ([1]; 750 ppm OPP in the gypsum core, 4 weeks) | Rating (mould growth on plasterboard surface) ([1]; 750 ppm OPP in the gypsum core, 8 weeks) | Concentration of use from which good effectiveness was found ([1]; based on the weight of the gypsum core) |
| --- | --- | --- | --- | --- | --- | --- | --- | --- | --- | --- | --- | --- | --- | --- | --- |
| c1ccc2[nH]c(-c3cscn3)nc2c1 [TBZ, thiabendazole, reference compound] | 500 µg/mL |  |  |  |  |  |  |  |  |  |  |  |  |  |  |
| Oc1ccccc1-c1ccccc1 [OPP, o-phenylphenol] |  | 100 µg/mL | 0/0 | 0/0 | 0/0 | 0/0 | 0/0 | 0/0 | 0/0 | 0/0 | 0/0 | 0/0 | 0/0 | 0/0 | ≥ 300 ppm |
